This test deals with Ubiquitin carboxyl-terminal hydrolase 28 (Homo sapiens) (UniProt Q96RU2). As to the kind of experiment: Ubiquitin-specific peptidase 28 DUB inhibitors, biochemical concentration-dependence assay, validation of primary screening hits (AID 1645866). The conditions noted are these: purified USP28, ubiquitin-rhodamine fluorescence, 30 min.

Calls of active or inactive are those of the source.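 The calls were made as follows: active = in confirmatory dose-response testing, peak deubiquitinase inhibition of 30% or more; inactive = the rest.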

Ubiquitin carboxyl-terminal hydrolase 28 (Homo sapiens), sequence (Q96RU2 whole entry, looked up): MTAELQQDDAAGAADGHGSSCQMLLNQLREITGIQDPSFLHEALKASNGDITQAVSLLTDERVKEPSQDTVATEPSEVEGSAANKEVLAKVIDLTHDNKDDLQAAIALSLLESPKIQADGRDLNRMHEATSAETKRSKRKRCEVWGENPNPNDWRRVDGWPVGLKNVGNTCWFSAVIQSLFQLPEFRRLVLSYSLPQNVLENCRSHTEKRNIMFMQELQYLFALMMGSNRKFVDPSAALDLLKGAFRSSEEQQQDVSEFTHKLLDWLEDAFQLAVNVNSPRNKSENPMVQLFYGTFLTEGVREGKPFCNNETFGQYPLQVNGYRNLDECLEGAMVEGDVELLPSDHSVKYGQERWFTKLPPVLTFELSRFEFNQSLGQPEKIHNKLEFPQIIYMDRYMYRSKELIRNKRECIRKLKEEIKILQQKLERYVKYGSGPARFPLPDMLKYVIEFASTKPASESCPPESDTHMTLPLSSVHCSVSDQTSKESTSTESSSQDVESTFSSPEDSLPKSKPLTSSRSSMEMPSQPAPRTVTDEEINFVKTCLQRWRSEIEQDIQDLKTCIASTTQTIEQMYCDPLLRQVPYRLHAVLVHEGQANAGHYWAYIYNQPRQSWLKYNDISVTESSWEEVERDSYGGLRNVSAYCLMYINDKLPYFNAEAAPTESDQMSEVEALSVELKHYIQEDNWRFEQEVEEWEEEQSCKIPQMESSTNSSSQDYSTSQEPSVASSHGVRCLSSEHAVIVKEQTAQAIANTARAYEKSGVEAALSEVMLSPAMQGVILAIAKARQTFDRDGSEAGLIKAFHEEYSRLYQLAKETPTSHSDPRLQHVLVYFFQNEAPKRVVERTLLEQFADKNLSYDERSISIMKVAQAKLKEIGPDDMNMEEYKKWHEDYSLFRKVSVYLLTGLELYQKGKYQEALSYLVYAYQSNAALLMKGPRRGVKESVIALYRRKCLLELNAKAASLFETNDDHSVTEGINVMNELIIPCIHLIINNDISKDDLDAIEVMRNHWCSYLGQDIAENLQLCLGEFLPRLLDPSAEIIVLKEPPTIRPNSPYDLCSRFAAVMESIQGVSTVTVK

As usually defined, the IC50 is the concentration at which inhibition is half-maximal. With `CCN(c1ccc(NC(=O)CSc2nnc(-c3ccccc3)n2-c2ccc(OC)c(OC)c2)cc1)C(C)C`, the 50% inhibitory concentration (IC50) is 6.1 µM.

Turning to `Cc1c(-c2nsc(NC(=O)c3ccc(Cl)cc3)n2)nnn1-c1ccccc1F`, the IC50 is 5.34 µM.

Consider `CC(=O)Nc1ccc(S(=O)(=O)NCc2ccc(C(=O)NCCc3ccc(Cl)cc3)cc2)cc1`, for which the IC50 was 1.77 µM.

On to `CCc1ccccc1NC(=O)c1cc(-c2ccccn2)n[nH]1`, for which the IC50 is 46.1 µM.

With `Cc1nn(-c2ccc(Cl)cc2)c2[nH]c(=O)c(CNCC3CCCO3)cc12` (stereo not given), the IC50 was > 50 µM (inactive).

Regarding `O=C(O)C1CCN(Cc2c(-c3ccco3)nc3ccc(Cl)cn23)CC1`, the IC50 was > 50 µM (inactive).

On to `O=C(NC1CCCC1)C1CC(=O)N(c2cccc(-c3noc(-c4cccs4)n3)c2)C1` (stereo not given), for which the 50% inhibitory concentration (IC50) is 35.9 µM.

For `COc1cnc(CSc2ncccn2)cc1OCC(=O)Nc1cc(C)ccc1C`, the IC50 was > 50 µM (inactive).

On to `O=[N+]([O-])c1ccc(NCC2COc3ccccc3O2)c(Cl)c1` (stereo not given), for which the concentration for half-maximal inhibition (IC50) was 3.75 µM.

On to `CC1CCc2c(sc3ncnc(OCc4cccc([N+](=O)[O-])c4)c23)C1` (stereo not given), for which the IC50 is below 0.05 µM.

As to `COCCCn1c(C(=O)NCCc2ccccc2)cc2c(=O)n3cccc(C)c3nc21`, the half-inhibitory concentration (IC50) is 42.1 µM.

Consider `COc1ccc(-c2cc(C(=O)N3CCN(c4ccc([N+](=O)[O-])cc4)CC3)[nH]n2)cc1`, for which the IC50 was > 50 µM (inactive).

Turning to `Cn1c(-c2nnc(SCC(=O)Nc3ccccc3F)o2)cc2ccccc21`, the IC50 is 17.9 µM.

`Cc1nc(-c2cccc(NC(=O)C3CCN(c4ccccc4)C3=O)c2)no1` (stereo not given): the IC50 was 27.3 µM.

With `O=C(c1ccnn1-c1ccc2ccc(-c3ccncc3)cn12)N1CCCC1`, the IC50 is > 50 µM (inactive).

Consider `CCCCNc1nc2c(-c3ccccc3)nnn2c2ccccc12`, for which the IC50 is 6.63 µM.

On to `COc1cc2c(cc1OC)-c1cc(NCc3cc(OC)c(OC)c(OC)c3)nc(=O)n1CC2`, for which the IC50 is > 50 µM (inactive).

On to `CCc1cc2cc3c(cc2nc1SCC(=O)Nc1cccc(C(C)=O)c1)OCO3`, for which the IC50 was 2.58 µM.

For `Cc1cc2nc(-c3ccc(SCc4ccccn4)nc3)[nH]c2cc1C`, the IC50 was 12.5 µM.

In the case of `O=C(Nc1ncc2c(n1)-c1ccccc1CC2)C1CC1`, the IC50 was 17.6 µM.

For `O=C(COc1cccc2c1CCN(Cc1cccnc1)C2=O)Nc1ccc2c(c1)OCCO2`, the IC50 is 1.34 µM.

On to `Cc1ccc(-n2c(=O)[nH]c3c(C(N)=O)nc(-c4cccnc4)nc32)cc1`, for which the IC50 was 6.87 µM.

Consider `COc1ccc(C(=O)Nc2nc3n(n2)C(c2ccccc2)CC(=O)N3)cc1` (stereo not given), for which the IC50 was 12.5 µM.

`Cc1ccc(NC(=O)c2nnn(-c3ccccc3Br)c2C)cc1C`: the IC50 was 1.53 µM.

For the molecule `Cc1nc(NCc2ccccn2)c2cc(-c3ccccc3)sc2n1`, the IC50 was 23.7 µM.

Take `CC(=O)c1ccc(NC(=O)/C(=C/c2ccco2)n2nnnc2-c2ccccc2)cc1`: the IC50 was 40.5 µM.

Turning to `COc1ccc(NC2c3ccccc3C(=O)N2c2ccccn2)cc1` (stereo not given), the IC50 is > 50 µM (inactive).

For the molecule `O=C(CN(Cc1ccc(Cl)cc1)S(=O)(=O)c1ccc(Cl)cc1)N1CCOCC1`, the IC50 is > 50 µM (inactive).

As to `O=C1CC(C(=O)Nc2ccccc2Cl)n2nc(-c3ccccc3)cc2N1` (stereo not given), the IC50 is 19.3 µM.

`COc1ccccc1NC(=O)CNC(=O)c1nn(-c2ccc(OC)c(OC)c2)c(=O)c2ccccc12`: the IC50 is 24.8 µM.

On to `Cc1cc(C)n2nc(CNc3cccc(Cl)c3)nc2n1`, for which the IC50 is 16.4 µM.

Regarding `CN1CCN(C(=O)c2cc(-c3ccn(CC4CC4)n3)n3ccccc23)CC1`, the IC50 is > 50 µM (inactive).

Turning to `COc1cccc(C(=O)NCC(=O)Nc2nc3ccccc3[nH]2)c1`, the IC50 was 43.8 µM.

Take `O=c1ccc(-c2noc(Cc3c(F)cccc3Cl)n2)c[nH]1`: the IC50 is 0.516 µM.

With `CCCC(O)CCCCCCCc1cc(O)cc(O)c1C(=O)OC(CCC)CCCCCCCc1cc(O)cc(O)c1` (stereo not given), the IC50 is 25.3 µM.

Consider `O=C(NC1(O)C(=O)c2ccccc2C1=O)c1ccc(-c2csnn2)cc1`, for which the IC50 is 36.5 µM.

In the case of `O=C(c1ccc2ncccc2c1)N1CCC2(C1)Nc1cccnc1NC2=NC1CCCC1` (stereo not given), the IC50 is > 50 µM (inactive).

Consider `CO[C@H]1CC[C@H](O)c2c1oc1c3c4c(c(O)c1c2=O)-c1c(cc2c(Cl)c(C)n(N)c(=O)c2c1O)C[C@@H]4OCO3`, for which the IC50 was 20.3 µM.

As to `O=C(COC(=O)c1ccc2[nH]c3c(c2c1)CCCC3)Nc1ccc2c(c1)OCO2`, the IC50 was 23.6 µM.

As to `Cc1cccc(NC(=O)CN2C(=O)COc3cc(S(=O)(=O)N4CCCC4)ccc32)c1C`, the IC50 was 21 µM.

Take `CCOC(=O)N1CCN(S(=O)(=O)c2ccc(C(=O)Nc3ccc(Br)cc3)cc2)CC1`: the IC50 is 18.3 µM.

In the case of `Cn1cccc1C(=O)N1CCCC2(C1)Nc1cccnc1NC2=NC1CCCC1` (stereo not given), the IC50 is > 50 µM (inactive).

For `Cc1cc(NC(=O)c2[nH]nc3c2CCc2ccccc2-3)no1`, the IC50 was 6.37 µM.

As for `COc1ccc(NC(=O)c2cc(-c3cccnc3)n[nH]2)cc1Cl`, the IC50 is 1.27 µM.

Take `O=C(CSc1nnc(Cn2cnc3ccccc32)o1)Nc1ccc([N+](=O)[O-])cc1`: the IC50 is 20.3 µM.

Consider `CCc1ccc(NC(=O)CN=C2NS(=O)(=O)C(c3ccc(CC)cc3)=C2C)cc1`, for which the IC50 is 21.7 µM.

Regarding `Cc1ccc(C)c(Nc2cc(C)nc3nc(-c4ccco4)nn23)c1`, the IC50 is > 50 µM (inactive).

Regarding `O=C(CCCn1c(=O)c2ccccc2n(CC(=O)NCc2ccccc2Cl)c1=O)NCc1ccc2c(c1)OCO2`, the IC50 was 1.94 µM.

For the molecule `COc1cccc2cc(C(=O)Nc3ccc4c(c3)OCCO4)oc12`, the IC50 is 9.86 µM.

For `O=C(NCc1ccc(-c2nc3cnccc3o2)cc1)c1ccccc1F`, the IC50 was 15.3 µM.

In the case of `CC1(C)Cc2c(c(-c3ccco3)nc3sc4c(SCCCc5ccccc5)ncnc4c23)CO1`, the IC50 was 34.9 µM.

With `c1ccc2c(Cc3nc(-c4ccncc4)no3)cccc2c1`, the half-inhibitory concentration (IC50) is 0.374 µM.

With `COc1cc(OC)c2c(c1)C(=O)C1=C(COC(C)(O)C1)C2=O` (stereo not given), the IC50 was > 50 µM (inactive).

Turning to `CCN1C[C@@H]2C[C@]2(c2ccccc2OC)C(=O)c2ncccc21`, the IC50 was > 50 µM (inactive).

Regarding `O=C(Nc1ccccc1)c1nc(-c2cn(Cc3ccc(F)cc3)nn2)no1`, the IC50 is 21 µM.

`O=c1[nH]cccc1NS(=O)(=O)c1ccc(F)cc1`: the IC50 is > 50 µM (inactive).

Regarding `COc1ccc(Cl)c(NC(=O)C2CC(=O)Nc3cc(-c4ccccc4)nn32)c1` (stereo not given), the IC50 was 17.3 µM.

`O=C(COc1nc2ccccc2nc1N1CCOCC1)NC(c1ccccc1)c1ccccc1`: the IC50 was > 50 µM (inactive).

Take `COc1ccc(NC(=O)c2ccccc2OCC(=O)Nc2ccccc2C(F)(F)F)c(C)c1`: the concentration for half-maximal inhibition (IC50) is 23.4 µM.

In the case of `N#C/C(=C\c1ccc(OCc2cccc(C(=O)O)c2)cc1)c1ccc(F)cc1`, the IC50 was 17.8 µM.

On to `CCn1c(COc2cccc(C(F)(F)F)c2)nnc1SCc1ccc(Cl)cc1`, for which the IC50 was 9.88 µM.

`CCOc1ccc(NS(=O)(=O)c2ccc(NC(=O)Nc3ccccc3)cc2)cc1`: the IC50 was 16 µM.

As for `O=C(Cn1c(=O)n(-c2ccccc2)c(=O)c2ccc(C(=O)NCc3ccc4c(c3)OCO4)cc21)NCCC1=CCCCC1`, the IC50 was 15.7 µM.

In the case of `O=C(CN1C(=O)COc2ccc(Cl)cc21)Nc1cccc2ncccc12`, the IC50 was > 50 µM (inactive).

Take `CNC(=O)c1cc2c(=O)n3cccc(C)c3nc2n1Cc1ccccc1`: the IC50 is 18.8 µM.

For the molecule `COC(=O)c1sc2ccccc2c1NC(=O)c1ccc(Br)s1`, the IC50 is 15.8 µM.

Regarding `O=C(CN1C(=O)c2ccccc2Sc2ccc(C(=O)N3CCCC3)cc21)Nc1ccccc1Cl`, the IC50 was 29.6 µM.

Turning to `CCNc1oc(-c2ccc(S(=O)(=O)N3CCCCC3)cc2)nc1C#N`, the concentration for half-maximal inhibition (IC50) was 26.6 µM.

For the molecule `COC(=O)COc1ccc(/C=N/NC(=O)c2ccc(CN3CCc4ccccc4C3)cc2)cc1`, the IC50 is 11.1 µM.

With `CSc1ccccc1C(=O)Nc1nc(-c2ccncc2)cs1`, the IC50 was 31 µM.

Consider `Cc1ccc(OCC(=O)Nc2cccc(-c3nc4ncccc4o3)c2)c(C)c1`, for which the IC50 was 38.5 µM.

Consider `O=C(CSc1nncc2ccccc12)Nc1ccc2c(c1)OCO2`, for which the IC50 is 37.5 µM.

For `O=C(Nc1ccc2c(c1)OCCO2)C1CCC(Cn2cnc3ccccc3c2=O)CC1` (stereo not given), the IC50 was 0.594 µM.

For `COc1ccc(-c2cc(-c3nnc(CSc4nc5ccccc5n4C)o3)c3ccccc3n2)cc1OC`, the IC50 is > 50 µM (inactive).

On to `CC1CCN(c2cc(-n3cnc(C(=O)N4CCCCC4)c3)ncn2)CC1`, for which the IC50 was 25.9 µM.

Regarding `COc1ccc(NC(=O)C2[C@@H]3C(=O)N(C4CCCCC4)C(=O)[C@@H]3[C@H]3c4ccccc4C=CN23)cc1` (stereo not given in full), the IC50 was 36.9 µM.

Consider `CC1CCN(c2nnc(-c3nc(C4CC4)no3)c3ccccc23)CC1`, for which the IC50 is > 50 µM (inactive).

On to `COc1ccc(NC(=O)CN2C(=O)c3ccccc3Sc3ccc(C(=O)N4CCCC4)cc32)cc1OC`, for which the IC50 was 34.2 µM.

For the molecule `CSc1nc(SCC(N)=O)c2c3c(sc2n1)COC(C)(C)C3`, the IC50 is 27.3 µM.

In the case of `O=C(NCc1ccccc1Cl)C1CCCN(c2nc3ccsc3c(=O)s2)C1` (stereo not given), the IC50 is 3.22 µM.

In the case of `O=C(c1nnn(Cc2ccc(Cl)cc2)c1-n1cccc1)N1CCCC1`, the IC50 is 5.97 µM.

For the molecule `O=C(C1CCCN(S(=O)(=O)N2CCCCCC2)C1)N1CCN(c2ccccc2)CC1` (stereo not given), the IC50 was > 50 µM (inactive).

Turning to `CC1=C(c2ccc(F)cc2)S(=O)(=O)NC1=NCC(=O)Nc1ccc(F)cc1F`, the IC50 was 41.1 µM.

In the case of `COC(=O)c1c(C)[nH]c(C(=O)C(C)OC(=O)CCC2CCCC2)c1C` (stereo not given), the IC50 was 1.47 µM.

Take `COc1ccc(OC)c(-c2c(C#N)c(C)nc3c2N2CCC3CC2)c1`: the IC50 was 1.8 µM.

Take `CN(C(=O)CSc1nnc(-c2cc3ccccc3n2C)o1)c1ccccc1`: the IC50 is > 50 µM (inactive).

On to `Cc1nc(C(=O)N[C@@H](C)C(=O)NCc2ccc3c(c2)OCO3)cc2c1[nH]c1ccccc12`, for which the IC50 was 22.5 µM.

In the case of `Cc1ccccc1C(=O)Nc1ccc(Cc2ccc(NC(=O)c3ccccc3C)c(O)c2)cc1O`, the IC50 was 43.7 µM.

Take `CC1CC[C@@]2(NC1)O[C@H]1C[C@H]3[C@@H]4CC=C5C[C@@H](O)CC[C@]5(C)[C@H]4CC[C@]3(C)[C@H]1[C@@H]2C` (stereo not given in full): the IC50 is 34.3 µM.

Consider `Nc1ccccc1SC(CC(=O)c1ccc(Cl)cc1)c1ccsc1` (stereo not given), for which the IC50 was > 50 µM (inactive).

The values above are taken from PubChem BioAssay AID1645866 (Buhrlage Lab, Dana-Farber Cancer Institute and Novartis …, 2021).
